Entries after “also recorded” stand apart in the source; their conditions may differ.
Experiments:
[1] = target: 1-AZT, a misfolded but functionally active mutant of α1-antitrypsin (Homo sapiens, UniProt P01009, E366K); conditions: model cell culture system; cited from earlier work
[2] = tested on: ConA-induced hepatitis mouse model; experiment: Concanavalin A-induced hepatitis model, serum liver enzymes (ALT, AST); format: in vivo, mice (C57BL/6)
Method: (§1) Animals—Male C57BL/6 mice (11-12 weeks old) were obtained from Harlan Laboratories (Jerusalem, Israel) and were maintained in the Animal Core of the Hadassah-Hebrew University Medical School. The mice received standard laboratory food and water ad libitum and were housed in a 12-hour light/dark cycle. All animal experiments were performed according to the guidelines and with the approval of the Hebrew University-Hadassah Institutional Committee for the Care and Use of Laboratory Animals.
(§2) Concanavalin A-induced hepatitis model—Concanavalin A (ConA, MP Biomedicals, USA) was dissolved in a solution consisting of 50 mM Tris pH 7, 150 mM NaCl, and 4 mM CaCl2 and injected into the tail vein at a dose of 500 μg/mouse (15 mg/kg) in 250 μl. Mice were sacrificed 15 hours following ConA injection. Mice (n=5-6 mice per group) were administered orally or intraperitoneally (IP), as indicated, DDW (control); Dexamethasone (0.35 mg/mouse, control); or alpha-1 anti-trypsin (AAT, Sigma A-9024) at a dose of 0.2, 0.35, 1.0 or 2.0 mg per mouse, 2 hours prior ConA treatment.
(§3) Assessment of Liver toxicity—Serum was obtained from individual mice at the indicated times and the levels of aspartate aminotransferase (AST) and alanine aminotransferase (ALT) were determined using a standard automated analyzer.

[3] = tested on: ConA-induced hepatitis mouse model; experiment: Concanavalin A-induced hepatitis model, serum IFN-γ by ELISA; format: in vivo, mice (C57BL/6); conditions: 15 hours following ConA
Method: as §1, §2
Cytokine measurement—Serum IFN-γ levels were measured at the indicated times in each animal using a commercially available ELISA kit (Quantikine, R&D Systems, MN, USA) according to manufacturer's instructions.

[4] = tested on: ConA-induced hepatitis mouse model; experiment: Concanavalin A-induced hepatitis model, liver histology score (H&E); format: in vivo, mice (C57BL/6); conditions: 15 hours following ConA; for Infiltrating leukocytes (%) / Lymphocyte adhesion (%) / Necrotic lesions (%): histological score, mean ± SD, AAT 0.35 mg/mouse IP, Dexamethasone 0.35 mg/mouse
Method: as §1, §2
Histology—Mice were sacrificed at the indicated times and their livers were harvested. Paraffin-embedded liver sections were prepared from and sliced into 4-5 μm-thick sections and stained with hematoxylin-eosin (H&E). The sections were scored according to the extent of liver damage using a previously described method^13, 14 with the following parameters: lymphocyte adhesion to hepatic and portal veins and sinusoids, the number of infiltrating leukocytes into the liver parenchyma, and the number of necrotic lesions (all per 10× high-power field).

[5] = tested on: APAP-mediated liver damage mouse model; experiment: Acetaminophen-mediated hepatotoxicity model, serum liver enzymes; format: in vivo, mice (C57BL/6); conditions: 2 hours following APAP, 24 hours following APAP, vs control (DDW)
Method: as §1
Acetaminophen-mediated hepatotoxicity model—Acetaminophen (APAP)-mediated hepatotoxicity was induced in mice via oral administration of 4 mg APAP (Tiptipot, CST). Mice (n=5 mice per group) were administered IP DDW (control) or AAT at a dose of 0.25 or 0.5 mg per mouse, 2 hours following administration of APAP
as §3

[6] = tested on: high fat diet (HFD) mouse model; experiment: High fat diet (HFD) with or without methionine choline deficient diet (MCD) fatty liver model; format: in vivo, mice (C57Bl); conditions: Example 3
Method: The effect of AAT on fatty liver disease is assessed by determining liver toxicity in a high fat diet (HFD) with or without methionine choline deficient diet (MCD) mouse model.
Blood is taken from the tail vein at the indicated time points and analyzed for:
Mice are sacrificed 14 weeks following beginning of treatment and analyzed for: • Weight • Epididymal fat weight (eq to visceral fat in humans) • MRI—to look at steatosis • ALT, AST • Serum for cytokines-what cytokines: IL2, 6, 4, 5, 12, IFN (gamma), TNF and TGF. IL-10, il-4, il-13, mcp1, • Adipokine—adiponectin which is anti-inflammatory adipokine and visfalatin • CBC including eosinophils • FACS for subsets of T cells • Assessment of eotaxin levels in the liver and in the adipose tissue by mRNA • Collect serum for Lipidomics to be conducted by OWL in Spain • Collect serum for mRNA of lymphocytes, to be performed in the USA by Ilumina sequencing machines • Liver fat quantification • Liver biopsy followed by histological evaluation: • 1. H&E staining • 2. Fat staining (IHC): Oil-R-O (frozen sections) • X2 non stained slides (paraffin embedded) • Snap freeze −80, ×3 samples (from each animal). • Assessment of fibrosis based on staining

[7] = AAT orally administered, 2 hours prior ConA, 15 hours following ConA

1-AZT, a misfolded but functionally active mutant of α1-antitrypsin, sequence (P01009 25-418 E366K): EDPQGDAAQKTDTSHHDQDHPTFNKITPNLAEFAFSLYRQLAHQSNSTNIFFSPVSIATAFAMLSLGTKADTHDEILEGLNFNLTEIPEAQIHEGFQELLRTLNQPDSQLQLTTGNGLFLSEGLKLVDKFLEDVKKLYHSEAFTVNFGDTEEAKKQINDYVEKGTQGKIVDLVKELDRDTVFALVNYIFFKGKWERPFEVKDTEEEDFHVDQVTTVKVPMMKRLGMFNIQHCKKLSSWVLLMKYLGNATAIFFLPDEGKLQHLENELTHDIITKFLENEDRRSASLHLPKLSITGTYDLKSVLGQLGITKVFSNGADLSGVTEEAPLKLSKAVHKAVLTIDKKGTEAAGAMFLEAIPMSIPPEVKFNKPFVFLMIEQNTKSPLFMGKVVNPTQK

| Molecule | secretion of 1-AZT [1] | serum levels of the ALT liver enzyme ([2]; AAT 0.35 mg per mouse IP, 2 hours prior ConA, 15 hours following ConA, p<0.005) | mice developing severe disease (severe hepatitis, serum ALT more than 1000 IU) ([2]; AAT 0.35 mg per mouse, compared to 100% in control (DDW) group, p<0.005) | serum levels of the ALT liver enzyme ([2]; AAT 1 mg per mouse IP, 2 hours prior ConA, 15 hours following ConA, p<0.005) | ALT serum levels ([2]; AAT 2 mg per mouse IP, 2 hours prior ConA, 15 hours following ConA) | AST levels ([2]; AAT IP, 2 hours prior ConA, 15 hours following ConA (FIG. 2)) | number of mice developing severe disease (serum ALT more than 1000 IU) ([2]; AAT at all doses tested) | ALT levels [2, 7] | AST levels [2, 7] | overall effect on the ConA-induced hepatitis model ([2]; IP administration of AAT) | serum IFNγ levels ([3]; AAT 1.0 mg per mouse IP, p<0.005) | serum IFNγ levels ([3]; AAT high dose 2.0 mg per mouse) | serum IFNγ levels ([3]; AAT low dose 0.35 mg per mouse) | number of infiltrating leukocytes into the liver parenchyma (in words) ([4]; AAT 0.35 mg per mouse IP) | Infiltrating leukocytes (%) [4] | Lymphocyte adhesion (%) [4] | Necrotic lesions (%) [4] | serum levels of the AST liver enzyme ([5]; AAT 0.25 mg per mouse IP) | serum levels of the AST liver enzyme ([5]; AAT 0.5 mg per mouse IP) | symptoms of fatty liver disease [6] |
| --- | --- | --- | --- | --- | --- | --- | --- | --- | --- | --- | --- | --- | --- | --- | --- | --- | --- | --- | --- | --- |
| O=C(O)CCCc1ccccc1 [PBA, 4-phenylbutyric acid] | marked increase | – | – | – | – | – | – | – | – | – | – | – | – | – | – | – | – | – | – | – |
| alpha-1 anti-trypsin [AAT] | – | Statistically significant reduction | 50% | Statistically significant reduction | no effect | corresponded to the ALT levels | reduced the number of mice developing severe disease | no effect | no effect | dose-dependent beneficial effect | significant reduction | no significant effect | no significant effect | significant improvement; also recorded: reduced leukocyte infiltration | 2.45 ± 8.33% | 2.8 ± 11.89% | 1 ± 1.67% | decrease | decrease | ameliorated symptoms of fatty liver disease |
| C[C@@H]1C[C@H]2[C@@H]3CCC4=CC(=O)C=C[C@]4(C)[C@@]3(F)[C@@H](O)C[C@]2(C)[C@@]1(O)C(=O)CO [Dexamethasone, reference compound] | – | – | – | – | – | – | – | – | – | – | – | – | – | – | 0.58 ± 2.5% | 0.58 ± 2.5% | 0% | – | – | – |
